Experimental data taken from patent US20200231638A1, “STABILIZED ANTI-MICROBIAL PEPTIDES” (priority 2015, published 2020).
Bridge positions count the residues as written; N and C are the ends. Square brackets hold non-standard residues; d marks the D form. Peptide text beside a SMILES is read from it. S5 = C=CCCC[C@](C)(N)C(=O)O; Nle = CCCC[C@H](N)C(=O)O

Key:
B. cereus = assay type: cell-based, Bacillus cereus
Method in brief: (§1)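 Microdilution MIC test in polyanion-depleted MHB, with a final inoculum of 5×10^5 CFU/ml and 20-24 h incubation at 37° C.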

P. aeruginosa = assay type: cell-based, Pseudomonas aeruginosa
Method in brief: as §1

E. coli = assay type: cell-based, Escherichia coli
Method in brief: as §1

S. aureus = assay type: cell-based, Staphylococcus aureus
Method in brief: as §1

human red blood cells = assay type: cell-based; settings: red cells of human, 1 h, 25
Method in brief: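 Hemolysis expressed as absorbance of released hemoglobin (570 nm) normalized between untreated and 1% Triton-X100 controls, with MHC taken as peptide concentration giving under 1% release. Peptide dilutions were exposed for 1 h at 37° C to a 1% (v/v) suspension of washed human red cells in PBS.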

| SMILES | MIC B. cereus (B. cereus) [µg/mL] | MIC P. aeruginosa (P. aeruginosa) [µg/mL] | MIC E. coli (E. coli) [µg/mL] | MIC S. aureus (S. aureus) [µg/mL] | % Hemolysis at 25 μg/ml (human red blood cells) [%] |
| --- | --- | --- | --- | --- | --- |
| CCCC[C@H](NC(=O)[C@]1(C)CCCC=CCCC[C@](C)(NC(=O)[C@H](Cc2c[nH]cn2)NC(=O)[C@H](CCCCN)NC(=O)CNC(=O)[C@H](Cc2ccccc2)NC(=O)[C@H](CCCCN)NC(=O)[C@H](CCCCN)NC(=O)[C@H](C)NC(=O)[C@H](CO)NC(=O)[C@H](Cc2c[nH]cn2)NC(=O)[C@H](CC(C)C)NC(=O)[C@H](Cc2ccccc2)NC(=O)[C@H](CCCCN)NC(=O)CNC(=O)[C@@H](NC(=O)CN)[C@@H](C)CC)C(=O)N[C@@H](C(C)C)C(=O)NCC(=O)N[C@@H](CCC(=O)O)C(=O)N1)C(=O)N[C@@H](CC(N)=O)C(=O)N[C@@H](CO)C(N)=O [Mag(i + 4)15(A15H), GIGKFLHSAKKFGKHXVGEXBNS] (H-GIGKFLHSAKKFGKH[S5]VGE[S5][Nle]NS-NH2; staple 16-20) | 6.2 | 12.5 | 3.1 | 12.5 | 4.7 |
| CCCC[C@H](NC(=O)[C@]1(C)CCCC=CCCC[C@](C)(NC(=O)[C@H](C)NC(=O)[C@H](CCCCN)NC(=O)CNC(=O)[C@H](CCC(=O)O)NC(=O)[C@H](CCCCN)NC(=O)[C@H](CCCCN)NC(=O)[C@H](C)NC(=O)[C@H](CO)NC(=O)[C@H](Cc2c[nH]cn2)NC(=O)[C@H](CC(C)C)NC(=O)[C@H](Cc2ccccc2)NC(=O)[C@H](CCCCN)NC(=O)CNC(=O)[C@@H](NC(=O)CN)[C@@H](C)CC)C(=O)N[C@@H](C(C)C)C(=O)NCC(=O)N[C@@H](CCC(=O)O)C(=O)N1)C(=O)N[C@@H](CC(N)=O)C(=O)N[C@@H](CO)C(N)=O [Mag(i + 4)15(F12E), GIGKFLHSAKKEGKAXVGEXBNS] (H-GIGKFLHSAKKEGKA[S5]VGE[S5][Nle]NS-NH2; staple 16-20) | >50 | >50 | 50 | >50 | 0.6 |
| CCCC[C@H](NC(=O)[C@]1(C)CCCC=CCCC[C@](C)(NC(=O)[C@H](C)NC(=O)[C@H](CCCCN)NC(=O)CNC(=O)[C@H](Cc2ccccc2)NC(=O)[C@H](CCCCN)NC(=O)[C@H](CCCCN)NC(=O)[C@H](C)NC(=O)[C@H](CO)NC(=O)[C@H](Cc2c[nH]cn2)NC(=O)[C@H](CC(C)C)NC(=O)[C@H](Cc2ccccc2)NC(=O)[C@H](CCCCN)NC(=O)CNC(=O)[C@@H](NC(=O)CN)[C@@H](C)CC)C(=O)N[C@@H](C(C)C)C(=O)NCC(=O)N[C@@H](CCCCN)C(=O)N1)C(=O)N[C@@H](CC(N)=O)C(=O)N[C@@H](CO)C(N)=O [Mag(i + 4)15(E19K), GIGKFLHSAKKFGKAXVGKXBNS] (H-GIGKFLHSAKKFGKA[S5]VGK[S5][Nle]NS-NH2; staple 16-20) | 6.2 | 3.1 | 1.6 | 12.5 | 7.1 |
| CCCC[C@H](NC(=O)[C@@H](NC(=O)[C@H](CCC(=O)O)NC(=O)CNC(=O)[C@@H](NC(=O)[C@H](Cc1ccccc1)NC(=O)[C@H](C)NC(=O)[C@]1(C)CCCC=CCCC[C@](C)(NC(=O)[C@H](C)NC(=O)[C@H](CO)NC(=O)[C@H](Cc2c[nH]cn2)NC(=O)[C@H](CC(C)C)NC(=O)[C@H](Cc2ccccc2)NC(=O)[C@H](CCCCN)NC(=O)CNC(=O)[C@@H](NC(=O)CN)[C@@H](C)CC)C(=O)N[C@@H](CCCCN)C(=O)N[C@@H](Cc2ccccc2)C(=O)NCC(=O)N1)C(C)C)[C@@H](C)CC)C(=O)N[C@@H](CC(N)=O)C(=O)N[C@@H](CO)C(N)=O [Mag(i + 4)9] (H-GIGKFLHSA[S5]KFG[S5]AFVGEI[Nle]NS-NH2; staple 10-14) | 12.5 | >50 | 6.2 | >50 | 66.9 |
| CCCC[C@H](NC(=O)[C@]1(C)CCCC=CCCC[C@](C)(NC(=O)[C@H](C)NC(=O)[C@H](CCCCN)NC(=O)CNC(=O)[C@H](Cc2ccccc2)NC(=O)[C@H](CCCCN)NC(=O)[C@H](CCCCN)NC(=O)[C@H](Cc2c[nH]cn2)NC(=O)[C@H](CO)NC(=O)[C@]2(C)CCCC=CCCC[C@](C)(NC(=O)[C@H](CCCCN)NC(=O)CN)C(=O)N[C@@H](CCCCN)C(=O)N[C@@H](Cc3ccccc3)C(=O)N[C@@H](CC(C)C)C(=O)N2)C(=O)N[C@@H](C(C)C)C(=O)NCC(=O)N[C@@H](CCC(=O)O)C(=O)N1)C(=O)N[C@@H](CCC(=O)O)C(=O)N[C@@H](CO)C(N)=O [Mag(i + 4)2, 15(I2K, A9H, N21E)] (H-GK[S5]KFL[S5]SHKKFGKA[S5]VGE[S5][Nle]ES-NH2; staple 3-7, 16-20) | 25 | 12.5 | 3.1 | 50 | 1.8 |
| CCCC[C@H](NC(=O)[C@]1(C)CCCC=CCCC[C@](C)(NC(=O)[C@H](C)NC(=O)[C@H](CCCCN)NC(=O)CNC(=O)[C@H](Cc2ccccc2)NC(=O)[C@H](CCCCN)NC(=O)[C@H](CCC(=O)O)NC(=O)[C@H](C)NC(=O)[C@H](CO)NC(=O)[C@H](Cc2c[nH]cn2)NC(=O)[C@H](CC(C)C)NC(=O)[C@H](Cc2ccccc2)NC(=O)[C@H](CCCCN)NC(=O)CNC(=O)[C@@H](NC(=O)CN)[C@@H](C)CC)C(=O)N[C@@H](C(C)C)C(=O)NCC(=O)N[C@@H](CCC(=O)O)C(=O)N1)C(=O)N[C@@H](CC(N)=O)C(=O)N[C@@H](CO)C(N)=O [Mag(i + 4)15(K10E), GIGKFLHSAEKFGKAXVGEXBNS] (H-GIGKFLHSAEKFGKA[S5]VGE[S5][Nle]NS-NH2; staple 16-20) | >50 | >50 | 6.2 | >50 | 2.4 |
| CCCC[C@H](NC(=O)[C@]1(C)CCCC=CCCC[C@](C)(NC(=O)[C@H](C)NC(=O)[C@H](CCCCN)NC(=O)CNC(=O)[C@H](Cc2ccccc2)NC(=O)[C@H](CCCCN)NC(=O)[C@H](CCCCN)NC(=O)[C@H](C)NC(=O)[C@H](CO)NC(=O)[C@H](Cc2c[nH]cn2)NC(=O)[C@H](CC(C)C)NC(=O)[C@H](Cc2ccccc2)NC(=O)[C@H](CCCCN)NC(=O)CNC(=O)[C@H](CCC(=O)O)NC(=O)CN)C(=O)N[C@@H](C(C)C)C(=O)NCC(=O)N[C@@H](CCC(=O)O)C(=O)N1)C(=O)N[C@@H](CC(N)=O)C(=O)N[C@@H](CO)C(N)=O [Mag(i + 4)15(I2E), GEGKFLHSAKKFGKAXVGEXBNS] (H-GEGKFLHSAKKFGKA[S5]VGE[S5][Nle]NS-NH2; staple 16-20) | >50 | >50 | 12.5 | >50 | 3.6 |
| CC[C@H](C)[C@H](NC(=O)CN)C(=O)NCC(=O)N[C@@H](CCCCN)C(=O)N[C@@H](Cc1ccccc1)C(=O)N[C@@H](CC(C)C)C(=O)N[C@@H](Cc1c[nH]cn1)C(=O)N[C@@H](CO)C(=O)N[C@@H](C)C(=O)N[C@@H](CCCCN)C(=O)N[C@@H](CCCCN)C(=O)N[C@@H](Cc1ccccc1)C(=O)NCC(=O)N[C@@H](CCCCN)C(=O)N[C@@H](C)C(=O)N[C@@H](Cc1ccccc1)C(=O)N[C@@]1(C)CCCC=CCCC[C@@](C)(C(=O)N[C@@H](CC(N)=O)C(=O)N[C@@H](CO)C(N)=O)NC(=O)[C@H]([C@@H](C)CC)NC(=O)[C@H](CCC(=O)O)NC(=O)CNC1=O [Mag(i + 4)16, GIGKFLHSAKKFGKAFXGEIXNS] (H-GIGKFLHSAKKFGKAF[S5]GEI[S5]NS-NH2; staple 17-21) | 12.5 | 6.2 | 3.1 | 50 | 7.8 |
| CCCC[C@H](NC(=O)[C@]1(C)CCCC=CCCC[C@](C)(NC(=O)[C@H](C)NC(=O)[C@H](CCCCN)NC(=O)CNC(=O)[C@H](Cc2ccccc2)NC(=O)[C@H](CCCCN)NC(=O)[C@H](CCCCN)NC(=O)[C@H](C)NC(=O)[C@H](CO)NC(=O)[C@H](Cc2c[nH]cn2)NC(=O)[C@H](CC(C)C)NC(=O)[C@H](Cc2ccccc2)NC(=O)[C@H](CCCCN)NC(=O)CNC(=O)[C@@H](NC(=O)CN)[C@@H](C)CC)C(=O)N[C@@H](CCC(=O)O)C(=O)NCC(=O)N[C@@H](CCC(=O)O)C(=O)N1)C(=O)N[C@@H](CC(N)=O)C(=O)N[C@@H](CO)C(N)=O [Mag(i + 4)15(V17E), GIGKFLHSAKKFGKAXEGEXBNS] (H-GIGKFLHSAKKFGKA[S5]EGE[S5][Nle]NS-NH2; staple 16-20) | >50 | >50 | 50 | >50 | 0.5 |
| CCCC[C@H](NC(=O)[C@]1(C)CCCC=CCCC[C@](C)(NC(=O)[C@H](C)NC(=O)[C@H](CCCCN)NC(=O)CNC(=O)[C@H](Cc2ccccc2)NC(=O)[C@H](CCCCN)NC(=O)[C@H](CCCCN)NC(=O)[C@H](C)NC(=O)[C@H](CO)NC(=O)[C@H](Cc2c[nH]cn2)NC(=O)[C@H](CC(C)C)NC(=O)[C@H](Cc2ccccc2)NC(=O)[C@H](CCCCN)NC(=O)[C@H](CCCCN)NC(=O)[C@@H](NC(=O)CN)[C@@H](C)CC)C(=O)N[C@@H](C(C)C)C(=O)NCC(=O)N[C@@H](CCC(=O)O)C(=O)N1)C(=O)N[C@@H](CC(N)=O)C(=O)N[C@@H](CO)C(N)=O [Mag(i + 4)15(G3K), GIKKFLHSAKKFGKAXVGEXBNS] (H-GIKKFLHSAKKFGKA[S5]VGE[S5][Nle]NS-NH2; staple 16-20) | 6.2 | 3.1 | 1.6 | 12.5 | 3.8 |
